Measured values published in patent US20260285850A1, “SUBSTITUTED OXAZOLIDINONES AND IMIDAZOLINONES AS HERBICIDES” (FMC CORPORATION, priority 2023, published 2026).

Legend:
Assay type in all cases: in vivo
[1] = test system: barnyardgrass (Echinochloa crus-galli); experiment: Test A preemergence soil spray, visual injury rating 0-100; conditions: 10 days
How it was run: (§1)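 Visual injury, scored 0-100 (100 = complete control) against untreated plants, 10 days after greenhouse treatment. Test chemicals in surfactant-containing non-phytotoxic solvent were applied in loam soil and sand, as a preemergence soil spray on seeds or postemergence to plants at the one- to two-leaf stage.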

[2] = test system: blackgrass (Alopecurus myosuroides); experiment: as above; conditions: 10 days
How it was run: as §1

corn (Zea mays) [3] = experiment: as above; conditions: 10 days
How it was run: as §1

[4] = test system: green foxtail (Setaria viridis); experiment: as above; conditions: 10 days
How it was run: as §1

kochia (Bassia scoparia) [5] = experiment: as above; conditions: 10 days
How it was run: as §1

[6] = test system: oat, wild (wild oat, Avena fatua); experiment: as above; conditions: 10 days
How it was run: as §1

[7] = test system: palmer (palmer amaranth, palmer pigweed, Amaranthus palmeri); experiment: as above; conditions: 10 days
How it was run: as §1

[8] = test system: ragweed (common ragweed, Ambrosia artemisiifolia); experiment: as above; conditions: 10 days
How it was run: as §1

[9] = test system: ryegrass, Italian (italian ryegrass, Lolium multiflorum); experiment: as above; conditions: 10 days
How it was run: as §1

soybean (Glycine max) [10] = experiment: as above; conditions: 10 days
How it was run: as §1

[11] = test system: wheat (Triticum aestivum); experiment: as above; conditions: 10 days
How it was run: as §1

[12] = test system: barnyardgrass (Echinochloa crus-galli); experiment: Test A postemergence application, visual injury rating 0-100
How it was run: as §1

[13] = test system: blackgrass (Alopecurus myosuroides); experiment: as above
How it was run: as §1

corn (Zea mays) [14] = experiment: as above
How it was run: as §1

[15] = test system: galium (catchweed bedstraw, Galium aparine); experiment: as above
How it was run: as §1

[16] = test system: green foxtail (Setaria viridis); experiment: as above
How it was run: as §1

[17] = test system: horseweed (Erigeron canadensis); experiment: as above
How it was run: as §1

kochia (Bassia scoparia) [18] = experiment: as above
How it was run: as §1

[19] = test system: oat, wild (wild oat, Avena fatua); experiment: as above
How it was run: as §1

[20] = test system: palmer (palmer amaranth, palmer pigweed, Amaranthus palmeri); experiment: as above
How it was run: as §1

[21] = test system: ragweed (common ragweed, Ambrosia artemisiifolia); experiment: as above
How it was run: as §1

[22] = test system: ryegrass, Italian (italian ryegrass, Lolium multiflorum); experiment: as above
How it was run: as §1

soybean (Glycine max) [23] = experiment: as above
How it was run: as §1

[24] = test system: wheat (Triticum aestivum); experiment: as above
How it was run: as §1

[25] = test system: barnyardgrass (Echinochloa crusgalli); experiment: Test B flooded paddy test, visual plant response rating 0-100; conditions: 250 g ai/ha, Flood, applied to paddy water, evaluated after 13 days
How it was run: (§2)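 Visual scores versus untreated controls were recorded 13 days after treatment of greenhouse-held plants. At the 2-leaf stage, pots were flooded 3 cm above the soil surface and compounds added straight to the water.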

[26] = test system: ducksalad (Heteranthera limosa); experiment: as above; conditions: 250 g ai/ha, Flood, applied to paddy water, evaluated after 13 days
How it was run: as §2

rice (Oryza sativa) = experiment: as above; conditions: 250 g ai/ha, Flood, applied to paddy water, evaluated after 13 days
How it was run: as §2

[27] = test system: sedge, umbrella (small-flower umbrella sedge, Cyperus difformis); experiment: as above; conditions: 250 g ai/ha, Flood, applied to paddy water, evaluated after 13 days
How it was run: as §2

[28] = 62 g ai/ha, 0 = no effect, 100 = complete control
[29] = 62 g ai/ha, postemergence, 10 days, 0 = no effect, 100 = complete control
[30] = Postemergence, 16 g ai/ha, greenhouse 10 days, 0 no effect, 100 complete control

CC1(C(=O)NC2CC=C(C(=O)O)C2)CN(c2cc(Cl)cc(Cl)c2)C(=O)O1 (stereo not shown) [Compound 158]
Barnyardgrass plant response rating ([1]; 16 g ai/ha, 0 to 100 scale): 40
Barnyardgrass plant response rating (0-100) [1, 28]: 90
Blackgrass plant response rating ([2]; 16 g ai/ha, 0 to 100 scale): 0
Blackgrass plant response rating (0-100) [2, 28]: 50
Corn plant response rating (corn (Zea mays) [3]; 16 g ai/ha, 0 to 100 scale): 0
Corn plant response rating (0-100) (corn (Zea mays) [3]; [28]): 60
Foxtail, Green plant response rating ([4]; 16 g ai/ha, 0 to 100 scale): 0
Foxtail, Green plant response rating (0-100) [4, 28]: 90
Kochia plant response rating (kochia (Bassia scoparia) [5]; 16 g ai/ha, 0 to 100 scale): 30
Kochia plant response rating (0-100) (kochia (Bassia scoparia) [5]; [28]): 80
Oat, Wild plant response rating ([6]; 16 g ai/ha, 0 to 100 scale): 10
Oat, Wild plant response rating (0-100) [6, 28]: 30
Pigweed, Palmer plant response rating ([7]; 16 g ai/ha, 0 to 100 scale): 50
Pigweed, Palmer plant response rating (0-100) [7, 28]: 90
Ragweed plant response rating ([8]; 16 g ai/ha, 0 to 100 scale): 0
Ragweed plant response rating (0-100) [8, 28]: 70
Ryegrass, Italian plant response rating ([9]; 16 g ai/ha, 0 to 100 scale): 0
Ryegrass, Italian plant response rating (0-100) [9, 28]: 70
Soybean plant response rating (soybean (Glycine max) [10]; 16 g ai/ha, 0 to 100 scale): 0
Soybean plant response rating (0-100) (soybean (Glycine max) [10]; [28]): 20
Wheat plant response rating ([11]; 16 g ai/ha, 0 to 100 scale): 40
Wheat plant response rating (0-100) [11, 28]: 80
Barnyardgrass plant response rating (0-100) [12, 29]: 100
Barnyardgrass plant response rating (0 to 100 scale) [12, 30]: 90
Blackgrass plant response rating (0-100) [13, 29]: 100
Blackgrass plant response rating (0 to 100 scale) [13, 30]: 80
Corn plant response rating (0-100) (corn (Zea mays) [14]; [29]): 100
Corn plant response rating (0 to 100 scale) (corn (Zea mays) [14]; [30]): 100
Galium plant response rating (0-100) [15, 29]: 90
Galium plant response rating (0 to 100 scale) [15, 30]: 90
Foxtail, Green plant response rating (0-100) [16, 29]: 90
Foxtail, Green plant response rating (0 to 100 scale) [16, 30]: 90
Horseweed plant response rating (0-100) [17, 29]: 70
Horseweed plant response rating (0 to 100 scale) [17, 30]: 30
Kochia plant response rating (0-100) (kochia (Bassia scoparia) [18]; [29]): 90
Kochia plant response rating (0 to 100 scale) (kochia (Bassia scoparia) [18]; [30]): 80
Oat, Wild plant response rating (0-100) [19, 29]: 90
Oat, Wild plant response rating (0 to 100 scale) [19, 30]: 20
Pigweed, Palmer plant response rating (0-100) [20, 29]: 90
Pigweed, Palmer plant response rating (0 to 100 scale) [20, 30]: 90
Ragweed plant response rating (0-100) [21, 29]: 60
Ragweed plant response rating (0 to 100 scale) [21, 30]: 50
Ryegrass, Italian plant response rating (0-100) [22, 29]: 80
Ryegrass, Italian plant response rating (0 to 100 scale) [22, 30]: 80
Soybean plant response rating (0-100) (soybean (Glycine max) [23]; [29]): 90
Soybean plant response rating (0 to 100 scale) (soybean (Glycine max) [23]; [30]): 60
Wheat plant response rating (0-100) [24, 29]: 80
Wheat plant response rating (0 to 100 scale) [24, 30]: 70
Plant response rating, Barnyardgrass (0 to 100 scale, 0 is no effect and 100 is complete control) [25]: 90
Plant response rating, Ducksalad (0 to 100 scale, 0 is no effect and 100 is complete control) [26]: 70
Plant response rating, Rice (0 to 100 scale, 0 is no effect and 100 is complete control) (rice (Oryza sativa)): 50
Plant response rating, Sedge, Umbrella (0 to 100 scale, 0 is no effect and 100 is complete control) [27]: 98
